Experimental data from PMC12388980, “Development of AGT-7: An Innovative ^99mTc-Labeled Theranostic Platform for Glioblastoma Imaging and Therapy” (Pharmaceuticals, 2025).

Legend:
[1] = system: T98 cells; assay: Flow cytometric analysis of DNA cell cycle, T98 cells; type: cell-based; settings: treated at IC50 for 72 h
Protocol: (§1) Subsequently, cells were washed with phosphate-buffered saline (PBS) solution, harvested by incubation with trypsin, and held at 37 °C for 20 min with a PI working solution ([…], and 0.1% Triton X-100). PI fluorescence data were collected using a flow cytometer (Cytognos S.L., Polígono La Serna, Nave 9, 37900 Santa Marta de Tormes, Salamanca, Spain) and were analyzed using GraphPad Prism Version 6 software and MedCalc software (trial version).
(§2) Figure 5 Graphical representation of cell cycle distribution in T98 (A) and U87 (B) cell lines after treatment with AGT-7 in IC50 concentration. Experiment was carried out three times, and values are means of three repetitions.

[2] = system: U87 cells; assay: Flow cytometric analysis of DNA cell cycle, U87 cells; type: cell-based; settings: treated at IC50 for 72 h
Protocol: as §1, §2

[3] = system: zebrafish (Danio rerio) embryos; assay: Acute toxicity test in zebrafish embryos (OECD 2010); type: in vivo; settings: 96 hpf
Protocol: Prior to advancing the biological evaluation of AGT-7, it was essential to assess its in vivo acute toxicity. To this end, we employed a standard acute exposure assay using zebrafish (Danio rerio) embryos as a vertebrate model system. Drug exposure was for 96 h post-fertilization (hpf), following the guidelines established by the Organisation for Economic Co-operation and Development (OECD, 2010) for fish embryo toxicity testing. […] This alignment between therapeutically effective concentrations and sub-lethal doses in vivo underscores a favorable safety profile for AGT-7 and supports its further preclinical development.
Adult zebrafish specimens of the wild-type strain (AB) were maintained in a colony room, in a recirculated system, at 28 ± 1 °C, pH 6.5–7.5, and water conductivity of 500 ± 50 μS cm−1 with a 14 h light/10 h dark photoperiod (lights on at 8:00 a.m.). Feeding of the fish was performed twice a day with zebrafish feed (Zebrafeed, Sparos, […]) following common practices. Sexually mature zebrafish (at least three months old) were used for spawning.
The collection of zebrafish eggs was performed at the beginning of the 14 h light phase following the mating procedure that took place overnight. […] The dechorionation process of the eggs followed at 24 h post-fertilization (hpf).
The dechorionated embryos were placed in 24-well culture plates (2 embryos per well, 1.5 mL of solution per well), and each experiment was performed in triplicate. Preliminary tests were performed to evaluate the range of 0–100% mortality. DMSO (0.1%) was used as dissolver and as well as vehicle control (non-exposed). In the current study, seven different concentrations of AGT-7 were tested (0.0, 10.0, 20.0, 40.0, 60.0, 80.0, and 100.0 μΜ). In total, 881 embryos were studied, of which 96 belonged to the non-exposed group. […] Each experiment lasted 96 h post fertilization time (hpf) and began at 24 hpf, approximately at the 26-somite point, according to Kimmel et al..
It is essential to apply an acute test that uses short-term exposure (96hpf) to AGT-7 and then to determine the concentration that is lethal to 50% of zebrafish embryos. This is a valuable indicator of acute fish toxicity. According to OECD 2010, indications of death of an embryo include coagulation of the embryo, lack of somite formation, non-detachment of the tail, and/or lack of heartbeat.
Toxicity assays (LD50 values) and confidence limits (LD25 and LD75) were calculated based on cumulative mortality at the end of the experiment (96 hpf). The LD50 values were assessed using Regression Probit analysis (the chi-square test, Pearson goodness of fit test, and 95% confidence interval).

[4] = system: T98 cells; assay: Trypan blue exclusion cytotoxicity assay, T98 cells; type: cell-based; settings: Homo sapiens, T98 cell line, 72 h post-treatment
Protocol: (§3) To explore the effect of AGT-7 on the viability of GBM cell lines, T98 and U87 cells were cultured with escalating concentrations of the compounds for 72 h, and afterward, the trypan blue exclusion assay was carried out.
(§4) The sensitivity of T98 and U87 cells to the compound was assessed using the trypan blue exclusion test. A total of 20,000 cells were seeded onto 12-well plates and incubated in a humidified atmosphere. After 24 h, cells were treated with the compound at concentrations of 20–100 μM for 72 h followed by trypan blue exclusion analysis. The results were derived as the mean of three independent experiments.
(§5) Figure 3 Cytotoxic effect of AGT-7 on T98 (A) and U87 cell lines (B) 72 h after treatment. The results are the average of three independent experiments and are standardized to untreated cells. The IC50 values were calculated using the GraphPad Prism Version 6 non-linear regression analysis model.
as §5, with “4” for “3”, “AGT-7 and TMZ” for “AGT-7”

[5] = system: U87 cells; assay: Trypan blue exclusion cytotoxicity assay, U87 cells; type: cell-based; settings: Homo sapiens, U-87 MG, U87 cell line, 72 h post-treatment
Protocol: as §3, §4, §5
as §5, with “4” for “3”, “AGT-7 and TMZ” for “AGT-7”

[6] = LC-MS-based plasma stability in human plasma; type: in vitro ADME; settings: 1 μM, 37 °C, 9-h incubation period, compared to TMZ
Protocol: Plasma samples were diluted 1:1 (v/v) with phosphate buffer (pH 7.4). […] The mixtures were vortexed vigorously and incubated at 37 °C on a thermoshaker (Kisker Biotech, Steinfurt, Germany) at 600 rpm. Reactions were terminated at 0, 1, 2, 3, 4, 6, 9, and 24 h by transferring 150 μL of the incubated plasma into 450 μL of ice-cold ACN. After vortexing, samples were stored at −20 °C for 30 min and centrifuged, and 200 μL of the supernatant was diluted with 600 μL of water. The resulting solution was filtered through a 0.22 μm nylon syringe filter (Target Analysis, Thessaloniki, Greece) into 2 mL glass vials before analysis.
The mobile phase consisted of (A) 0.1% formic acid in water and (B) 0.05% formic acid in ACN, delivered constantly at 0.2 mL/min. The gradient program was optimized as follows: 1% B (0.00–3.00 min), linear ramp to 100% B (3.00–10.00 min), hold at 100% B (10.00–12.00 min), return to initial conditions (12.00–12.01 min), and re-equilibration at 1% B (12.01–15.00 min). […]
Full-scan MS data were acquired in MS^E mode with two alternating collision energy functions: low energy (4 eV) for precursor ions and ramped high energy (25–45 eV) for fragment ions. […] System control and data acquisition were managed using MassLynx v4.2 (SCN 1029), while UNIFI v1.9.4.053 facilitated data processing, including adduct identification ([M+H]⁺, [M+Na]⁺, [M+H2]^2+) and relative quantitation. […]

Row | SMILES | effect on cell cycle progression [1] | effect on cell cycle progression [2] | LD25 [3] [µM] | LD75 [3] [µM] | concentrations with no significant mortality [3] | LD50 ([3]; cumulative mortality, probit analysis) [µM] | IC50 [4] [µM] | IC50 [5] [µM] | plasma stability profile [6]
1 | Cn1nnc2c(C(=O)NCCCCN(Cc3ccccn3)Cc3ccccn3)ncn2c1=O [AGT-7] | no significant effect on cell cycle progression | no significant effect on cell cycle progression | 35.54 | 61.64 | up to 30 μM | 46.81 | 27 | 30 | very similar to that of the parent drug, TMZ
2 | Cn1nnc2c(C(N)=O)ncn2c1=O [TMZ, temozolomide, reference compound] | – | – | – | – | – | – | 143 | 50 | –
